From patent US8877706B2, “Maytansinoid derivatives” (Bio-Thera Solutions, Ltd., Co., priority 2012, dated 2014)

Experiments:
Raji cells = test: Effect on the growth of Raji cells (CCK-8); details: 3 days
Description: Briefly, 10 thousands cells in 100 μL of DMEM:F12 (GBICO, CA) culture medium without serum were seeded into each well of a 96-well plate. Twice-fold serial dilutions of antibodies or conjugated form were prepared and each diluted antibodies were added in triplicate to the wells and the cultures were incubated at 37° C. for 3 days. The controls consisted of either medium alone or medium containing of Raji cell. After incubation, CCK-8 was added to each well and the absorbance at 450 nm of each well was determined in a Spectra Max spectrophotometer (Molecular Devices, Sunnyvale, Calif.).

[1] = tested on: EGFR positive tumor cell line A431; test: Growth inhibition, relative cell proliferation with CCK-8, A431; format: cell-based, human; details: A431, 72 hours
Description: Briefly, cells were detached by using 0.25% (vol/vol) trypsin and suspended in complete medium. Aliquots of cells were plated into 96-well microdilution plates. […] After 72 hours, plates were washed twice with PBS (pH 7.5), and analyzed for relative cell proliferation with CCK-8 reagent.

tubulin = test: HTS-Tubulin Polymerization Assay Kit, tubulin polymerization in vitro; format: biochemical; details: 1 μM preparations, 10 μL added to 100 μL 4 mg/ml tubulin; 405 nm, 37° C.; compared with the PBS buffer
Description: According to the instruction of kit, pre-warm the 96-well plate to 37° C. for 30 min prior to starting the assay. At the same time, the spectrophotometer (SpectraMax, Molecular Devices, USA) was set as follow: wavelength, 405 nm; temperature, 37° C.; Kinetic, 31 cycles of 1 reading per minute. Make cold G-PEM buffer (990 μL General Tubulin Buffer+10 μL GTP Stock) and keep it on ice. […] Immediately place the plate into the spectrophotometer and start recording using the kinetic setup described above. […] Nocodazole, the tubulin polymerization inhibitor, was set as a negative control. The metabolite Cys-3AA-MDC was prepared by reaction of 3AA-MDC with cysteine under the base DIEA in CH2Cl2. LC-MS (M+H^+) calc.: 964.5. found: 964.2. Rt: 12.97 min. The metabolite Lys-MCC-MDC was prepared by reaction of SMCC-MDC with lysine under the base DIEA in DMF. LC-MS (M+H^+) calc.: 1103.7. found: 1103.2. Rt: 13.00 and 13.18 min.

[2] = tested on: human acute lymphoblastic leukemia line C.E.M.; details: cited from earlier work
[3] = versus methotrexate, daunorubicin, and vincristine; cited from earlier work

Bat1206: monoclonal antibody (rituximab) binding the extracellular domain of CD20
inhibition of CD20 positive cell growth (Raji cells): inhibitory effects | inhibition of A431 cell proliferation [1]: had no effects on A431 cells

CN[C@@H](C)C(=O)OC1CC(=O)N(C)c2cc(cc(OC)c2Cl)C/C(C)=C/C=C/C(OC)C2(O)CC(OC(=O)N2)C(C)C2OC12C (stereo partly shown) [Cys-3AA-MDC]
inhibition of tubulin polymerization (tubulin): significantly inhibited the tubulin polymerization

COc1cc2cc(c1Cl)N(C)C(=O)C[C@H](OC(=O)[C@H](C)N(C)C(=O)CCCCCN1C(=O)C=CC1=O)[C@]1(C)OC1[C@H](C)[C@@H]1C[C@@](O)(NC(=O)O1)[C@H](OC)/C=C/C=C(\C)C2 (stereo partly shown) [3AA-MDC, N2′-deacetyl-N2′-(6-maleimido-1-oxo-hexyl)maytansine]
inhibition of tubulin polymerization (tubulin): significantly inhibited the tubulin polymerization

COc1cc2cc(c1Cl)N(C)C(=O)C[C@H](OC(=O)[C@H](C)N(C)C(C)=O)[C@]1(C)O[C@H]1[C@H](C)[C@@H]1C[C@@](O)(NC(=O)O1)[C@H](OC)/C=C/C=C(\C)C2 [Maytansine]
concentration inhibiting C.E.M. line (as low as) [2]: 10^−7 μg/mL | fold more cytotoxic than conventional chemotherapeutic agents [3]: 100- to 1000 fold

COc1cc2cc(c1Cl)N(C)C(=O)C[C@H](OC(=O)[C@H](C)N(C)C(=O)CCSC1CC(=O)N(CC3CCC(C(=O)NCCCC[C@H](N)C(=O)O)CC3)C1=O)[C@]1(C)O[C@H]1[C@H](C)[C@@H]1C[C@@](O)(NC(=O)O1)[C@H](OC)/C=C/C=C(\C)C2 (stereo partly shown) [Lys-mcc-MDC]
inhibition of tubulin polymerization (tubulin): significantly inhibited the tubulin polymerization
